Measured values: USRE47302E1 (ONYX THERAPEUTICS INC., priority 2013, dated 2019)
Converted amounts (≈) assume the structure as drawn.

Assay: Solubility pH 7
Settings: pH 7, aqueous buffer

Row | solubility | SMILES
1 | 7310 µg/mL (≈ 12.9 mM) | COc1ccc(C[C@H](NC(=O)[C@@H](C)NC(=O)[C@@H]2CCCN(C)C2)C(=O)N[C@@H](CC2=CCCC2)C(=O)[C@@]2(C)CO2)cc1 [Compound C-1099, (R)-N-((R)-1-(((S)-1-(((S)-3-(cyclopent-1-en-1-yl)-1-((R)-2-methyloxiran-2-yl)-1-oxopropan-2-yl)amino)-3-(4-methoxyphenyl)-1-oxopropan-2-yl)amino)-1-oxopropan-2-yl)-1-methylpiperidine-3-carboxamide]
2 | 12300 µg/mL (≈ 20.5 mM) | COc1ccc(C[C@H](NC(=O)[C@H](C)NC(=O)CN2CCOCC2)C(=O)N[C@@H](C[C@H]2CCN(C)C2=O)C(=O)[C@@]2(C)CO2)cc1 [Compound C-1040, (2S)-3-(4-methoxyphenyl)-N-((2S)-3-(1-methyl-2-oxopyrrolidin-3-yl)-1-((R)-2-methyloxiran-2-yl)-1-oxopropan-2-yl)-2-((S)-2-(2-morpholinoacetamido)propanamido) propanamide]
3 | 1070 µg/mL (≈ 1.84 mM) | COc1ccc(C[C@H](NC(=O)[C@@H](C)NC(=O)[C@]2(C)CC[C@@H](O)CC2)C(=O)N[C@@H](CC2=CCCC2)C(=O)[C@@]2(C)CO2)cc1 [Compound C-1111, (1r,4R)-N-((R)-1-(((S)-1-(((S)-3-(Cyclopent-1-en-1-yl)-1-((R)-2-methyloxiran-2-yl)-1-oxopropan-2-yl)amino)-3-(4-methoxyphenyl)-1-oxopropan-2-yl)amino)-1-oxopropan-2-yl)-4-hydroxy-1-methylcyclohexanecarboxamide]
4 | 4570 µg/mL (≈ 7.61 mM) | COc1ccc(C[C@H](NC(=O)[C@H](C)NC(=O)CN2CCOCC2)C(=O)N[C@@H](CC2=CCCCC2)C(=O)[C@@]2(C)CO2)cc1O [Compound C-1100]
5 | 125 µg/mL (≈ 0.2 mM) | C[C@H](NC(=O)CN1CCOCC1)C(=O)N[C@@H](Cc1ccc(OC(F)(F)F)cc1)C(=O)N[C@@H](CC1CCCC1)C(=O)[C@@]1(C)CO1 [Compound C-1084, (S)-N-((S)-3-cyclopentyl-1-((R)-2-methyloxiran-2-yl)-1-oxopropan-2-yl)-2-((S)-2-(2-morpholinoacetamido)propanamido)-3-(4-(trifluoromethoxy)phenyl)propanamide]
6 | 1110 µg/mL (≈ 1.91 mM) | COc1ccc(C[C@H](NC(=O)[C@@H](C)NC(=O)[C@]2(C)CC[C@H](O)CC2)C(=O)N[C@@H](CC2=CCCC2)C(=O)[C@@]2(C)CO2)cc1 [Compound C-1112, (1s,4S)-N-((R)-1-(((S)-1-(((S)-3-(cyclopent-1-en-1-yl)-1-((R)-2-methyloxiran-2-yl)-1-oxopropan-2-yl)amino)-3-(4-methoxyphenyl)-1-oxopropan-2-yl)amino)-1-oxopropan-2-yl)-4-hydroxy-1-methylcyclohexanecarboxamide]
7 | 257 µg/mL (≈ 0.5 mM) | C[C@H](NC(=O)CN1CCOCC1)C(=O)N[C@@H](CC1CC1)C(=O)N[C@@H](Cc1ccccc1)C(=O)[C@@]1(C)CO1 [Compound C-1224, (S)-3-cyclopropyl-N-((S)-1-((R)-2-methyloxiran-2-yl)-1-oxo-3-phenylpropan-2-yl)-2-((S)-2-(2-morpholinoacetamido)propanamido)propanamide]
8 | 1830 µg/mL (≈ 3.12 mM) | COc1ccc(C[C@H](NC(=O)[C@H](C)NC(=O)CN2CCOCC2)C(=O)N[C@@H](CC2=CC(C)CC2)C(=O)[C@@]2(C)CO2)cc1 (stereo partly drawn) [Compound C-1122, (2S)-3-(4-methoxyphenyl)-N-((2S)-3-(3-methylcyclopent-1-en-1-yl)-1-((R)-2-methyloxiran-2-yl)-1-oxopropan-2-yl)-2-((S)-2-(2-morpholinoacetamido)propanamido)propanamide]
9 | 7830 µg/mL (≈ 13.8 mM) | COc1ccc(C[C@H](NC(=O)[C@@H](C)NC(=O)C2CCN(C)CC2)C(=O)N[C@@H](CC2=CCCC2)C(=O)[C@@]2(C)CO2)cc1 [Compound C-1098, N-((R)-1-(((S)-1-(((S)-3-(cyclopent-1-en-1-yl)-1-((R)-2-methyloxiran-2-yl)-1-oxopropan-2-yl)amino)-3-(4-methoxyphenyl)-1-oxopropan-2-yl)amino)-1-oxopropan-2-yl)-1-methylpiperidine-4-carboxamide]
10 | 3790 µg/mL (≈ 6.78 mM) | C[C@H](NC(=O)CN1CCOCC1)C(=O)N[C@@H](Cc1ccc(O)cc1)C(=O)N[C@@H](CC1CCCC1)C(=O)[C@@]1(C)CO1 [Compound C-1113, (S)-N-((S)-3-cyclopentyl-1-((R)-2-methyloxiran-2-yl)-1-oxopropan-2-yl)-3-(4-hydroxyphenyl)-2-((S)-2-(2-morpholinoacetamido)propanamido)propanamide]
11 | 793 µg/mL (≈ 1.42 mM) | C[C@H](NC(=O)CN1CCOCC1)C(=O)N[C@@H](Cc1cccc(O)c1)C(=O)N[C@@H](CC1CCCC1)C(=O)[C@@]1(C)CO1 [Compound C-1114, (S)-N-((S)-3-cyclopentyl-1-((R)-2-methyloxiran-2-yl)-1-oxopropan-2-yl)-3-(3-hydroxyphenyl)-2-((S)-2-(2-morpholinoacetamido)propanamido)propanamide]
12 | 1370 µg/mL (≈ 2.47 mM) | C[C@H](NC(=O)CN1CCOCC1)C(=O)N[C@@H](CCc1ccccc1)C(=O)N[C@@H](CC1=CCCC1)C(=O)[C@@]1(C)CO1 [Compound C-1128, (S)-N-((S)-3-(Cyclopent-1-en-1-yl)-1-((R)-2-methyloxiran-2-yl)-1-oxopropan-2-yl)-2-((S)-2-(2-morpholinoacetamido)propanamido)-4-phenylbutanamide]
13 | 1700 µg/mL (≈ 2.98 mM) | Cc1cc(C[C@H](NC(=O)[C@H](C)NC(=O)CN2CCOCC2)C(=O)N[C@@H](CC2=CCCC2)C(=O)[C@@]2(C)CO2)ccc1O [Compound C-1131, (S)-N-((S)-3-(cyclopent-1-en-1-yl)-1-((R)-2-methyloxiran-2-yl)-1-oxopropan-2-yl)-3-(4-hydroxy-3-methylphenyl)-2-((S)-2-(2-morpholinoacetamido)propanamido)propanamide]
14 | 213 µg/mL (≈ 0.396 mM) | COc1ccc(C[C@H](NC(=O)[C@H](C)NC(=O)C2COC2)C(=O)N[C@@H](Cc2ccccc2)C(=O)[C@@]2(C)CO2)cc1 [Compound C-1168]
15 | 2460 µg/mL (≈ 4.06 mM) | COc1ccc(C[C@H](NC(=O)[C@H](C)NC(=O)CN2CCOCC2)C(=O)N[C@@H](Cc2ccc(C#N)cc2)C(=O)[C@@]2(C)CO2)cc1 [Compound C-1163]
16 | 4090 µg/mL (≈ 6.67 mM) | C[C@H](NC(=O)CN1CCOCC1)C(=O)NC(Cc1ccc2c(c1)COC(=O)N2)C(=O)N[C@@H](CC1CCCC1)C(=O)[C@@]1(C)CO1 (stereo partly drawn) [Compound C-1101, N-((S)-3-cyclopentyl-1-((R)-2-methyloxiran-2-yl)-1-oxopropan-2-yl)-2-((S)-2-(2-morpholinoacetamido)propanamido)-3-(2-oxo-2,4-dihydro-1H-benzo[d][1,3]oxazin-6-yl)propanamide]
17 | 200 µg/mL (≈ 0.334 mM) | COc1ccc(C[C@H](NC(=O)[C@@H](NC(=O)CN2CCOCC2)C2CC2)C(=O)N[C@@H](CC2CCCC2)C(=O)[C@@]2(C)CO2)cc1 [Compound C-1107, (S)-N-((S)-3-cyclopentyl-1-((R)-2-methyloxiran-2-yl)-1-oxopropan-2-yl)-2-((S)-2-cyclopropyl-2-(2-morpholinoacetamido)acetamido)-3-(4-methoxyphenyl)propanamide]
18 | 3190 µg/mL (≈ 5.29 mM) | COc1ccc(C[C@H](NC(=O)[C@H](C)NC(=O)CN2CCOCC2)C(=O)N[C@@H](C[C@H]2CC[C@H](O)CC2)C(=O)[C@@]2(C)CO2)cc1 [Compound C-1002, (S)-N-((S)-3-((1r,4S)-4-hydroxycyclohexyl)-1-((R)-2-methyloxiran-2-yl)-1-oxopropan-2-yl)-3-(4-methoxyphenyl)-2-((S)-2-(2-morpholinoacetamido)propanamido)propanamide]
19 | > 10000 µg/mL | COc1ccc(C[C@H](NC(=O)[C@H](C)NC(=O)CN2CCOCC2)C(=O)N[C@@H](CC2=CCCC2)C(=O)[C@@]2(C)CO2)cn1 [Compound C-1140, (S)-N-((S)-3-(cyclopent-1-en-1-yl)-1-((R)-2-methyloxiran-2-yl)-1-oxopropan-2-yl)-3-(6-methoxypyridin-3-yl)-2-((S)-2-(2-morpholinoacetamido)propanamido)propanamide]
20 | 287 µg/mL (≈ 0.479 mM) | COc1ccc(C[C@H](NC(=O)[C@H](C)NC(=O)CN2CCC(C)(O)CC2)C(=O)N[C@@H](CC2=CCCC2)C(=O)[C@@]2(C)CO2)cc1 [Compound C-1121, (S)-N-((S)-3-(cyclopent-1-en-1-yl)-1-((R)-2-methyloxiran-2-yl)-1-oxopropan-2-yl)-2-((S)-2-(2-(4-hydroxy-4-methylpiperidin-1-yl)acetamido)propanamido)-3-(4-methoxyphenyl)propanamide]
21 | > 10 µg/mL | COc1ccc(C[C@H](NC(=O)[C@H](C)NC(=O)CN2CCOCC2)C(=O)N[C@@H](CC2CNC(=O)C2)C(=O)[C@@]2(C)CO2)cc1 (stereo partly drawn) [Compound C-1035, (2S)-3-(4-methoxyphenyl)-N-((2S)-1-((R)-2-methyloxiran-2-yl)-1-oxo-3-(5-oxopyrrolidin-3-yl)propan-2-yl)-2-((S)-2-(2-morpholinoacetamido)propanamido)propanamide]
22 | 3820 µg/mL (≈ 6.67 mM) | COc1ccc(C[C@H](NC(=O)[C@H](C)NC(=O)CN2CCOCC2)C(=O)N[C@@H](CC(F)(F)F)C(=O)[C@@]2(C)CO2)cc1 [Compound C-1226]
23 | > 10000 µg/mL | C[C@H](NC(=O)CN1CCOCC1)C(=O)N[C@@H](Cc1ccn(C)c(=O)c1)C(=O)N[C@@H](CC1=CCCC1)C(=O)[C@@]1(C)CO1 [Compound C-1137, (S)-N-((S)-3-(cyclopent-1-en-1-yl)-1-((R)-2-methyloxiran-2-yl)-1-oxopropan-2-yl)-3-(1-methyl-2-oxo-1,2-dihydropyridin-4-yl)-2-((S)-2-(2-morpholinoacetamido)propanamido)propanamide]
24 | 1890 µg/mL (≈ 3.34 mM) | COc1ccc(C[C@H](NC(=O)C(C)NC(=O)CN2CCOCC2)C(=O)N[C@H](C(=O)[C@@]2(C)CO2)c2ccccc2)cc1 (stereo partly shown) [Compound C-1176]
25 | 1540 µg/mL (≈ 2.75 mM) | COc1ccc(C[C@H](NC(=O)[C@@H](C)NC(=O)[C@@H]2CC[C@@H](O)C2)C(=O)N[C@@H](CC2CCCC2)C(=O)[C@@]2(C)CO2)cc1 [Compound C-1077, (1R,3R)-N-((R)-1-(((S)-1-(((S)-3-cyclopentyl-1-((R)-2-methyloxiran-2-yl)-1-oxopropan-2-yl)amino)-3-(4-methoxyphenyl)-1-oxopropan-2-yl)amino)-1-oxopropan-2-yl)-3-hydroxycyclopentanecarboxamide]
